Test results: article PMC10480042 (ACS applied materials & interfaces, 2023)
No end group written: not given here.

Key:
Aβ42 [1] = target: T1, Aβ42 (Homo sapiens, UniProt P05067); experiment: CD spectroscopy; format: biochemical; conditions: co-incubation with Spike1058, dose-dependent, 48 h, 37 °C
Aβ42 [2] = target: T1, Aβ42; format: biochemical
Aβ42 [3] = target: T1, Aβ42; experiment: SEC-HPLC-UV of Aβ42 and Spike1058 co-aggregation; format: biochemical; conditions: molar ratio 1:2, 4 h, 37 °C, UV 220 nm, PBS pH 5.6
Aβ42 [4] = target: T1, Aβ42; experiment: biochemical; format: binding
zebrafish embryos [5] = conditions: in vivo
zebrafish embryos [6] = conditions: in vivo; remark: listed apart in the source

T1 sequence (P05067 672-713): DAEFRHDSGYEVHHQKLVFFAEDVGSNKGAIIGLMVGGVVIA

## HGVVFLHVTYV [Spike1058]
Aβ42 [1]
  increase of β-sheet content of Aβ by co-incubation (CD): 16-35%
Aβ42 [2]
  increase of Aβ's β-sheet content by co-incubation: 7-33%
Aβ42 [3]
  decrease of amount of Spike1058 in mixed Aβ-Spike1058 sample: 39.54%
Aβ42 [4]
  Kd: 0.0826 µM
SH-SY5Y cells
  cell mortality: elevated in a dose-dependent manner
  cell mortality vs Aβ control: less deleterious than Aβ control
  number of viable SH-SY5Y cells at increasing Spike:Aβ molar ratios: gradual decline in number
SH-SY5Y cells; 25 µM
  impact on cell viability, less than Aβ control: 11%
SH-SY5Y cells; 24 h
  viable SH-SY5Y cells compared with Aβ control group: 22%
Zebrafish embryos [5]
  hatching interference and mortality compared to control group: pronounced hatching interference and mortality
  hatching rate in comparison to Aβ or Spike1058 alone: significantly decreased
  influence on hatching and mortality rate relative to Aβ: more substantial influence than Aβ
  survival rate in comparison to Aβ or Spike1058 alone: significantly decreased
Zebrafish embryos [6]
  generation of biotic ROS, surpassing levels with Aβ or Spike1058 alone: significant increase
